In patent publication US20140243348A1, “COMPOSITIONS AND METHODS FOR TREATING HERPES VIRUSES” (President and Fellows of Harvard College, priority 2011, published 2014):

Experiments:
[1] = tested on: wild type HSV-1; assay: HSV yield reduction assay (plaque assay) with HIV integrase inhibitors; format: cell-based; conditions: 100 μM; FIG. 6
Experimental: At 48 hours post infection, viral yield samples were harvested and the yield was determined by plaque assay. Values are presented as the percent yield remaining, relative to the DMSO vehicle control treatment.
Cells were infected with wild type HSV-1 at a multiplicity of infection of 0.01 plaque-forming units per cell and treated with the indicated concentration of the HIV integrase inhibitor specified. At 48 hours post infection, viral yield samples were harvested and the yield was determined by plaque assay. Values are presented as the percent yield remaining, relative to the DMSO vehicle control treatment.

[2] = target: HCMV UL89 (Human cytomegalovirus, UniProt P16732); conditions: cited from earlier work
[3] = tested on: HSV-1 KOS virus; assay: Screen of 118-D-24 derivatives on HSV-1 KOS replication in Hep2 cells; format: cell-based; conditions: 250 μM, MOI=0.01, 48 hours, FIG. 12
Experimental: To evaluate the effects of 118-D-24 derivatives on HSV replication, a panel of derivatives (Table 1) (Zhao, X. Z., 2008, J. Med. Chem., vol. 51, pages 251-259) were screened for their ability to inhibit HSV-1 KOS virus replication in Hep2 cells. Hep2 cells were plated in a 6-well plate and incubated overnight to reach confluency. The cells were then inoculated with HSV-1 KOS virus at MOI=0.01 for 1 hour. Following inoculation, the virus inoculum was replaced with DMEV medium containing 118-D-24 or a derivative of 118-D-24. After 48 hours, samples were harvested by adding an equal volume of 10% non-fat milk and immediately frozen at −80° C. Samples were freeze-thawed three times to rupture the cell membranes and allow the release of virus. Virus titers were determined by titration on Vero cells. The 100% yield represents the viral titer in samples without drug treatment. […] Hep2 cells or (FIG. 14A) or HFF cells (FIG. 14B) were infected with HSV-1 virus (KOS strain) at MOI of 0.01. Samples were then processed and percent yield remaining values were calculated. EC50 and EC90 values were calculated using nonlinear regression curve fit with a variable slope. GaraphPad Prism 5 software was used for all analyses. (FIG. 14C) Cytotoxicity of XZ45 on the viability of Hep2 cells during a 48-hour incubation period was evaluated using the Promega cell titer glo assay, as described by the manufacturer. The reported values are percent […] remaining relative to the […] from cells grown in media containing DMSO alone. CC50 value was determined as described above. FIGS. 14A and 14B show the effects of XZ45 on HSV-1 replication in Hep2 cells (14A) and normal human foreskin fibroblasts (14B) and the cytotoxicity of XZ45 in Hep2 cells is shown in FIG. 14C.

[4] = tested on: HSV-1 strain KOS, strain F; assay: XZ45 viral yield assay, HSV-1; format: cell-based; conditions: Hep2 or HFF cells, 48 hours; FIG. 15
Experimental: (§1) Hep2 cells were infected with HSV-1 strain KOS, strain F, or HSV-2 strain G at MOI of 0.01. The infected cells were grown in media containing increasing concentrations of XZ45 or DMSO for 48 hours. Samples were harvested and viral yield was determined by plaque assay on Vero cells. The reported values are percent yield remaining relative to cells grown in media containing DMSO alone (FIG. 15A). Hep2 cells (FIG. 15B) or HFF cells (FIG. 15C) were infected with HSV-1 virus (KOS strain) at MOI of 10 or 0.01 or with human cytomegalovirus (HCMV) (FIG. 16). Samples were then processed and percent yield remaining values were calculated as describe above.

[5] = tested on: HSV-2 strain G; assay: XZ45 viral yield assay, HSV-2; format: cell-based; conditions: Hep2 cells, MOI 0.01, 48 hours; FIG. 15A
Experimental: as §1

[6] = tested on: human cytomegalovirus (HCMV); assay: XZ45 viral yield assay, HCMV; format: cell-based; conditions: FIG. 16
Experimental: as §1

[7] = tested on: HSV-1 KOS viral DNA; assay: XZ45 viral DNA synthesis (real-time PCR) in Hep2 cells; format: cell-based; conditions: 10 μM XZ45, MOI=10, FIG. 17A
Experimental: (§2) Hep2 cells were infected with HSV-1 KOS at an MOI=10 in the presence or absence of 10 μM XZ45. Total DNA was harvested at the times indicated, and viral DNA levels in each sample were determined by real-time PCR and were normalized to the levels of cellular DNA. […] Hep2 cells were infected with HSV-1 KOS in the presence or absence of 10 μM XZ45. Lysates were prepared for immunoblotting at the indicated times. Polypeptides were resolved by SDS-PAGE, transferred to a PVDF membrane, and probed for representative immediate-early (ICP27), early (ICP8), and late (gC) gene products.

[8] = tested on: HSV-1 KOS late (gC) gene products; assay: XZ45 viral gene expression by immunoblotting in Hep2 cells; format: cell-based; conditions: 10 μM XZ45, FIG. 17B
Experimental: as §2

[9] = target: T1, ICP8 (Human herpesvirus 1, UniProt P17470); assay: ssDNA binding by ICP8 (EMSA, ssDNA beads pull down, ssDNA-cellulose); conditions: three assays; FIG. 18A-18C
Experimental: The effect of XZ45 on ssDNA binding by ICP8 was measured by EMSA assay with purified ICP8 protein using ^32P-labled polynucleotide ssDNA probe (FIG. 18A); ssDNA beads pull down assay (FIG. 18B), and ICP8 binding to ssDNA-cellulose (FIG. 18C).

[10] = tested on: HSV recombination; assay: HSV recombination in Hep2 cells coinfected with 8LacZ and hr99; format: cell-based; conditions: 20 hours after infection, compared to PAA, FIG. 19
Experimental: To test the effect of XZ45 on HSV recombination during viral replication, 8LacZ (deletion of ul29) and hr99 (deletion of ul5) virus were used to coinfect Hep2 cells in the presence of XZ45 or PAA. At 20 hours after infection, samples were harvested and progeny virus were tittered on Vero cells and V529 cells to determine the viral titer of recombinated virus and total virus. The recombination rate reflects the ratio between the titer of recombinated virus and total virus.

[11] = target: T1, ICP8; assay: D-loop assay of ICP8 mediated recombination; format: biochemical; conditions: 0, 10, 20, or 40 μM XZ45; FIG. 20
Experimental: To further test the effect of XZ45 on ICP8 mediated recombination a D-loop assay was used. A double stranded DNA probe was mixed with a single stranded DNA oligonucleotide in the presence or absence of ICP8 with 0, 10, 20, or 40 μM XZ45. Following incubation, the reaction products were analyzed by electrophoresis through a native gel.

T1 sequence (P17470 whole entry): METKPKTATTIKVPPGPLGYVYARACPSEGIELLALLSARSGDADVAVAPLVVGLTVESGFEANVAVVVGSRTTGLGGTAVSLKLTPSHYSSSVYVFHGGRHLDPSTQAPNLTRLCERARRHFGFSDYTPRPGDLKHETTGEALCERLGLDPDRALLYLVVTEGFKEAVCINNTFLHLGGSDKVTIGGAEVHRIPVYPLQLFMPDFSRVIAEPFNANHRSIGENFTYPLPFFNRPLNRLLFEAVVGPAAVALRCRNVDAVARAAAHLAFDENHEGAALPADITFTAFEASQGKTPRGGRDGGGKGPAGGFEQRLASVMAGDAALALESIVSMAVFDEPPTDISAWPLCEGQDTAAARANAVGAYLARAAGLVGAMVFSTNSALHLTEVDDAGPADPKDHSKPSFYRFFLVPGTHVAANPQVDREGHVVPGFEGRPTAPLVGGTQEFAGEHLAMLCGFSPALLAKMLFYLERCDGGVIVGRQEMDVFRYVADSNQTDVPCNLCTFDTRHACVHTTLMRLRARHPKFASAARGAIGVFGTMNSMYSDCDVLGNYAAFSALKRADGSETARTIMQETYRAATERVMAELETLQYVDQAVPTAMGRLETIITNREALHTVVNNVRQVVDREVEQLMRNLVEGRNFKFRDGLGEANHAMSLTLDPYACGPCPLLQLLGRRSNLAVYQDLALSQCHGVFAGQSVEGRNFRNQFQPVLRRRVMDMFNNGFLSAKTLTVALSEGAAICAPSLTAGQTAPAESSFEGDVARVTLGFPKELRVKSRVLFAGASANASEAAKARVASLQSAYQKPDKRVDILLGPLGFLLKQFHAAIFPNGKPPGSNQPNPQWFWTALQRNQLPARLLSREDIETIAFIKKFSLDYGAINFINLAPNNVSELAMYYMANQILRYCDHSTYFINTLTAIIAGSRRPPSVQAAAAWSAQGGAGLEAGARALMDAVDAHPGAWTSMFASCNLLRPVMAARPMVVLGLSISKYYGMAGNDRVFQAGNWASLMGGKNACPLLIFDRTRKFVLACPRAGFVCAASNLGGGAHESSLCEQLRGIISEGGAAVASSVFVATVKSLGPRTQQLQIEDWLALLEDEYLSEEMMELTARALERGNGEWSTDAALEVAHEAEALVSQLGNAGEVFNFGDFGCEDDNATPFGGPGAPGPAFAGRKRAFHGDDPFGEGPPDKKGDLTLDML
Sequence of HCMV UL89 (P16732 whole entry): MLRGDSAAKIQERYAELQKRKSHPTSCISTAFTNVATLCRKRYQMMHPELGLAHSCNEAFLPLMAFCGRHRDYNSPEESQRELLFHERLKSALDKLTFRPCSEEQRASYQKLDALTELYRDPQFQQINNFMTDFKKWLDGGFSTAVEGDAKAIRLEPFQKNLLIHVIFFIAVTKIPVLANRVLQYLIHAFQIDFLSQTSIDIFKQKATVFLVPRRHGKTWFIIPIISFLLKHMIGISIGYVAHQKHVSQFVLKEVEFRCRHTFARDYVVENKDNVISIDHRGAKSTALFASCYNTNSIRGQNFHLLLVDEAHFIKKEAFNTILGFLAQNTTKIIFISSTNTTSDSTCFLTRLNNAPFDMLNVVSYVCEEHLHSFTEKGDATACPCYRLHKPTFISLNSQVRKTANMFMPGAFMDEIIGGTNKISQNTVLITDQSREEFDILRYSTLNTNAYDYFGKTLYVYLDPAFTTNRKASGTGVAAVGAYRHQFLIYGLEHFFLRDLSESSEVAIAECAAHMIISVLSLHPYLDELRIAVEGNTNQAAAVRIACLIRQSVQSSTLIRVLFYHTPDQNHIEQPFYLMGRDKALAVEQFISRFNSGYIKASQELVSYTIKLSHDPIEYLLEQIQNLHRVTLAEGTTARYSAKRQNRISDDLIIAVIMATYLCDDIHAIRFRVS

## Cc1nnc(C(=O)NC(C)(C)c2nc(C(=O)NCc3ccc(F)cc3)c(O)c(=O)n2C)o1 [Raltegravir]
[1]
  reduction of HSV viral yield: greater than 96%
[2]
  HCMV UL89 activity: inhibit HCMV UL89 activity

## O=C(NNC(=O)c1cccc(O)c1O)c1cccc(O)c1O [XZ15]
[3]
  viral yield (in words): significant reductions in viral yield

## O=C(NNC(=O)c1cccc(O)c1O)c1ccccc1O [XZ45]
[3]
  viral yield (in words): significant reductions in viral yield
[4]
  replication of HSV-1: inhibits the replication
[5]
  replication of HSV-2: inhibits the replication
[6]
  replication of HCMV: inhibits the replication
[7]
  viral DNA synthesis: Inhibits Viral DNA Synthesis
[8]
  expression of the late gene (gC) products: significantly inhibited
[9]
  ssDNA binding by ICP8: does not affect ssDNA binding
[10]
  HSV recombination (recombination rate): significantly inhibited HSV recombination
[11]
  ICP8 mediated formation of D-loops: inhibited the ICP8 mediated formation of D-loops

## O=C1c2c(ccc(O)c2O)CN1N1Cc2ccc(O)c(O)c2C1=O [XZ48]
[3]
  viral yield (in words): significant reductions in viral yield

## O=C(NN1Cc2ccc(O)c(O)c2C1=O)c1cccc(O)c1O [XZ49]
[3]
  viral yield (in words): significant reductions in viral yield

## O=C1c2c(ccc(O)c2O)CN1N1C(=O)c2ccc(O)c(O)c2C1=O [XZ50]
[3]
  viral yield (in words): significant reductions in viral yield

## [N-]=[N+]=NCc1cccc(CN2Cc3ccc(O)c(O)c3C2=O)c1 [XZ99]
[3]
  viral yield (in words): significant reductions in viral yield

## [N-]=[N+]=NCc1cccc(CN2C(=O)c3ccc(O)c(O)c3C2=O)c1 [XZ100]
[3]
  viral yield (in words): significant reductions in viral yield
